Series [1] concerns the target T1, C-C chemokine receptor type 1 (Homo sapiens, UniProt P32246).
T1 sequence (P32246 whole entry): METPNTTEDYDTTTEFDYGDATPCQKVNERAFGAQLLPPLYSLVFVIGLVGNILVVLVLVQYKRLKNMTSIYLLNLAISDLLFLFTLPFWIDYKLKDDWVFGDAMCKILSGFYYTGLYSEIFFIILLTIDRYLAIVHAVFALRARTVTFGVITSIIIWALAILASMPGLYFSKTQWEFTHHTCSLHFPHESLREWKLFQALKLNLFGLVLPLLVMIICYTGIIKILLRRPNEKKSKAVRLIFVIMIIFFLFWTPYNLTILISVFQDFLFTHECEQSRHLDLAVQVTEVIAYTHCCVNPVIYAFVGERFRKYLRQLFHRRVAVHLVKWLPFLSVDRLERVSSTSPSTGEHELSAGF
Briefly: Displacement of [125I]MIP-1alpha from CCR1 in human THP1 cells. Type of series: cell-based, THP-1.

The target of series [2] is T2, Nuclear receptor subfamily 1 group I member 2 (Homo sapiens, UniProt O75469).
T2 sequence (O75469 whole entry): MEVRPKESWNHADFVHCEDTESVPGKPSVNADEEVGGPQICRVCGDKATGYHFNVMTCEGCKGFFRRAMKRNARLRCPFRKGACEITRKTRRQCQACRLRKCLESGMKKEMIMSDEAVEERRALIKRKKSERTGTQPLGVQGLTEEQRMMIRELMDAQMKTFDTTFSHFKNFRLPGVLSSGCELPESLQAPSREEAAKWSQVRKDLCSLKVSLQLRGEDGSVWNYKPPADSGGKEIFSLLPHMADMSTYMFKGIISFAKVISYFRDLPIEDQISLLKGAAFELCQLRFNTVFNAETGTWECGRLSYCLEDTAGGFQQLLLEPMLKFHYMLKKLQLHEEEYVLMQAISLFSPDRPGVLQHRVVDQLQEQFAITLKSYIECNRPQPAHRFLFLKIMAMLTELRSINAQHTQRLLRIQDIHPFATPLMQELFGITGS
Put plainly: Transactivation of human full-length PXR transfected in human HepG2 cells after 24 hrs by luciferase reporter gene assay. It counts as cell-based. The note with it: for EC20: human, hepg2, 24 h.

Series [3] in a line: Metabolic stability in human liver microsomes assessed as compound remaining at 3 uM after 60 mins by UV-LC/MS analysis. To be noted: read-out: Stability. Type of series: ADME. A general note: Liver microsomes are vesicles of endoplasmic reticulum, rich in cytochrome P450 enzymes.
Series [4] can be described thus: Metabolic stability in rat liver microsomes assessed as compound remaining at 3 uM after 60 mins by UV-LC/MS analysis. Type of series: ADME. The note with it: read-out: Stability.
The nature of series [5]: Metabolic stability in mouse liver microsomes assessed as compound remaining at 3 uM after 60 mins by UV-LC/MS analysis. Type of series: ADME. To be noted: read-out: Stability.
Series [6] can be described thus: Metabolic stability in human liver microsomes assessed as compound remaining at 0.5 uM after 60 mins by UV-LC/MS analysis. Type of series: ADME. To be noted: read-out: Stability.
Series [7] in a line: Metabolic stability in rat liver microsomes assessed as compound remaining at 0.5 uM after 60 mins by UV-LC/MS analysis. Type of series: ADME. The note with it: read-out: Stability.
Series [8] in a line: Metabolic stability in mouse liver microsomes assessed as compound remaining at 0.5 uM after 60 mins by UV-LC/MS analysis. Type of series: ADME. The note with it: read-out: Stability.

For orientation: IC50 means the concentration that inhibits the measured activity by half. Higher therefore signals weaker potency in that assay. The EC50 is the concentration giving half of the maximal effect. Low readings indicate an effect from little substance, high ones a need for much substance. Regarding `CC(C)[C@@H](NC(=O)N[C@H]1CC[C@@H](O)C1)C(=O)N1CC[C@](O)(c2ccc(Cl)cc2)C(C)(C)C1`, the IC50 in series [1] was determined as 3 nM. It took 19000 nM to reach a half-maximal effect in series [2] (EC50). Moreover, the remaining at 1 h, 3 µM in series [3] worked out at 92%; in series [4], 83%; in series [5], 100%.

Usually EC20 stands for the point of the concentration-response curve where the effect stands at 20%. In the case of `CC(C)[C@@H](NC(=O)NC1CCCC1)C(=O)N1CC[C@](O)(c2ccc(Cl)cc2)C(C)(C)C1`, in series [1], the IC50 was 2 nM. In series [2], the EC20 was 7100 nM. For the same compound, the remaining at 1 h, 3 µM in series [3] worked out at 77%; in series [4], 57%; in series [5] it was 68%.

As for `CC(C)[C@@H](NC(=O)N[C@H]1CC[C@H](O)C1)C(=O)N1CC[C@](O)(c2ccc(Cl)cc2)C(C)(C)C1`, the IC50 in series [1] amounted to 3 nM. Moreover, the response in series [2] was half-maximal at 5700 nM (EC50). In addition, the remaining at 1 h, 3 µM is 99% in series [3], 96% in series [4] and 100% in series [5].

`CC(C)[C@@H](NC(=O)NC[C@H](C)O)C(=O)N1CC[C@](O)(c2ccc(Cl)cc2)C(C)(C)C1` returned an IC50 in series [1] of 2 nM. This compound also came in with a concentration giving a half-maximal response (EC50) in series [2] greater than 25000 nM. Moreover, the remaining at 1 h, 0.5 µM in series [6] was found to be 88%; in series [7], 79%; in series [8], 95%.

In series [1], `CC(C)[C@@H](NC(=O)Nc1ccccc1)C(=O)N1CC[C@](O)(c2ccc(Cl)cc2)C(C)(C)C1` gave an IC50 of 20 nM.

Turning to `CC(C)[C@@H](NC(=O)N[C@@H]1CC[C@@H](O)C1)C(=O)N1CC[C@](O)(c2ccc(Cl)cc2)C(C)(C)C1`, the IC50 in series [1] is 4 nM. Also, the EC50 in series [2] was greater than 50000 nM. For the same compound, the values for the remaining at 1 h, 3 µM in series [3], in series [4] and in series [5] were 100%, 84% and 100%, respectively.

The compound `CC[C@H](C)NC(=O)N[C@@H](C(=O)N1CC[C@](O)(c2ccc(Cl)cc2)C(C)(C)C1)C(C)C` registered an IC50 in series [1] of 2 nM. The EC20 in series [2] came out at 8700 nM. Besides, the remaining at 1 h, 3 µM in series [3] amounted to 65%; in series [4], 89%; in series [5], 87%.

As to `CC(C)[C@@H](NC(=O)N[C@@H]1CC[C@H](O)C1)C(=O)N1CC[C@](O)(c2ccc(Cl)cc2)C(C)(C)C1`, the IC50 in series [1] came to 2 nM. The compound also came in with an EC50 in series [2] greater than 50000 nM. Also, the remaining at 1 h, 3 µM in series [3] worked out at 76%; in series [4], 75%; in series [5] it was 86%.

`CC(C)[C@@H](NC(=O)CCC(C)(C)O)C(=O)N1CC[C@](O)(c2ccc(Cl)cc2)C(C)(C)C1` gave an IC50 in series [1] of 2 nM. In series [2], this compound came in with an EC50 of 25000 nM. Also, the remaining at 1 h, 0.5 µM is 91% in series [6], 35% in series [7] and 74% in series [8].

The compound `CC(C)[C@@H](NC(=O)NC[C@@H](C)O)C(=O)N1CC[C@](O)(c2ccc(Cl)cc2)C(C)(C)C1` registered an IC50 in series [1] of 2 nM. In series [2], this compound registered an EC50 greater than 25000 nM. Further, the remaining at 1 h, 0.5 µM in series [6] was found to be 88%; in series [7], 78%; in series [8], 86%.

The compound `CC(C)[C@@H](NC(=O)N1CCCC1)C(=O)N1CC[C@](O)(c2ccc(Cl)cc2)C(C)(C)C1` yielded an IC50 in series [1] of 9 nM. The same compound gave an EC20 in series [2] of 800 nM. Also, the remaining at 1 h, 3 µM turned out to be 2% in series [3], 11% in series [4] and 19% in series [5].

The compound `CC(C)[C@@H](NC(=O)C[C@H](C)O)C(=O)N1CC[C@](O)(c2ccc(Cl)cc2)C(C)(C)C1` yielded an IC50 in series [1] of 11 nM. This lies in the double-digit nanomolar range.

As to `CC(C)[C@@H](NC(=O)C[C@@H](C)O)C(=O)N1CC[C@](O)(c2ccc(Cl)cc2)C(C)(C)C1`, in series [1], the IC50 is 2 nM. In addition, the EC50 in series [2] was 7800 nM. The remaining at 1 h, 3 µM amounted to 87% in series [3], 79% in series [4] and 85% in series [5].

Consider `CC(C)[C@@H](NC(=O)NCc1ccccc1)C(=O)N1CC[C@](O)(c2ccc(Cl)cc2)C(C)(C)C1`, for which the IC50 in series [1] is 1 nM. In series [2], the EC20 is 2200 nM. Also, the figures for the remaining at 1 h, 3 µM in series [3], in series [4] and in series [5] were 3%, 1% and 2%, respectively.

On to `CC[C@@H](C)NC(=O)N[C@@H](C(=O)N1CC[C@](O)(c2ccc(Cl)cc2)C(C)(C)C1)C(C)C`, for which the IC50 in series [1] was 3 nM. This compound also gave an EC20 in series [2] of 5200 nM. The remaining at 1 h, 3 µM in series [3] stood at 59%; in series [4] it was 85%; in series [5], 72%.

In series [1], `CC(C)[C@@H](NC(=O)CC(C)(C)O)C(=O)N1CC[C@](O)(c2ccc(Cl)cc2)C(C)(C)C1` yielded an IC50 of 3 nM. The EC50 in series [2] turned out to be 2300 nM. Besides, the remaining at 1 h, 3 µM in series [3] was 100%; in series [4] it was 84%; in series [5], 100%.

These data come from ChEMBL document CHEMBL3351798, “Discovery of the CCR1 antagonist, BMS-817399, for the treatment of rheumatoid arthritis” (J Med Chem, 2014).
